# Laboratory results: US12697289B2, “Organic ricinoleate salts as deodorizing agents” (COLONIAL CHEMICAL, INC., priority 2022, dated 2026)
# Assay: Deodorization evaluation with GASTEC gas detector tubes (24 hour acetic acid deodorization study)
# Conditions: FIG. 1; GASTEC Detector Tube method; 24 hour equilibration; comparison with industry standard Cola®Quat SME
# Source text: Deodorization Evaluations with GASTEC Gas Detector Tubes.
# The Gas Sampling Pump Kit (GV-100S) and Gas detection tubes are manufactured by GasTec International and purchased through New Star Environmental. The pump provided in the gas sampling pump kit provides a precise vacuum on the tubes and therefore a specific volume of gas. Tubes are pre-calibrated for specific molecules, have a ppm scale on the tube, and show a color change when reacting to the target odor causing molecule. There may be corrections for temperature, humidity, or specific target molecules.
# Our exemplary, general method was as follows: • 1. […] Prepare the odorant solution for the experiment. • The concentration will need to be workshopped for each odorant molecule to give an appropriate “untreated” ppm reading • 5. […]
# Additionally, the method attempts to control the volume of odorant solution, volume of deodorant solution, total liquid volume, surface area of liquid, volume of headspace, and equilibration time. Ambient temperature and humidity are recorded at the start of equilibration and at the time of measurement. […] The temperature used if correction is necessary is the temperature recorded at measurement. The humidity used if correction is necessary is the humidity recorded before equilibration as this should be the main component of the humidity variations between experiments. […]
substance,measurement,value
Soyamidopropyl Morpholine Ricinoleate,"reducing odor vapors from acetic acid, compared to Cola®Quat SME standard",compare favorably
soyamidopropyl dimethylamine ricinoleate,"reducing odor vapors from acetic acid, compared to Cola®Quat SME standard",compare favorably
